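Growth conditions: 96-well plates. Treatment: test compound, 48 hours, 5 concentrations. Analysis: linear interpolation between bracketing concentrations; unreached endpoints set to highest concentration. GI50: concentration for 50% inhibition of growth.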 Active and inactive are the calls of the source. Cut-off read from the data, not from the text of the source: active = GI50 up to about 1.1 µM and inactive = higher.
Key:
Assay in all cases: growth of human tumour cells (NCI), 48 h
ACHN = tested on: ACHN
CCRF-CEM = tested on: CCRF-CEM
DU-145 = tested on: DU-145
EKVX = tested on: EKVX
HT-29 = tested on: HT-29
Hs-578T = tested on: Hs-578T
IGROV-1 = tested on: IGROV-1
KM12 = tested on: KM12
LOX IMVI = tested on: LOX IMVI
MCF7 = tested on: MCF7
NCI-H23 = tested on: NCI-H23
OVCAR-5 = tested on: OVCAR-5
SF-268 = tested on: SF-268
SF-295 = tested on: SF-295
SF-539 = tested on: SF-539
SK-MEL-5 = tested on: SK-MEL-5
SW-620 = tested on: SW-620
UACC-62 = tested on: UACC-62
SNB-75 = tested on: SNB-75
T47D = tested on: T47D

Row | SMILES | GI50 (ACHN) | GI50 (CCRF-CEM) | GI50 (DU-145) | GI50 (EKVX) | GI50 (HT-29) | GI50 (Hs-578T) | GI50 (IGROV-1) | GI50 (KM12) | GI50 (LOX IMVI) | GI50 (MCF7) | GI50 (NCI-H23) | GI50 (OVCAR-5) | GI50 (SF-268) | GI50 (SF-295) | GI50 (SF-539) | GI50 (SK-MEL-5) | GI50 (SW-620) | GI50 (UACC-62) | GI50 (SNB-75) | GI50 (T47D)
1 | COc1cc(C2SCC(=O)N2c2ccccn2)cc(OC)c1OC (stereo unspecified) | > 100 µM (inactive) | > 100 µM (inactive) | > 100 µM (inactive) | > 100 µM (inactive) | > 100 µM (inactive) | > 100 µM (inactive) | 81.1 µM (inactive) | 62.1 µM (inactive) | > 100 µM (inactive) | 49.2 µM (inactive) | > 100 µM (inactive) | > 100 µM (inactive) | > 100 µM (inactive) | 81.1 µM (inactive) | 65 µM (inactive) | 55 µM (inactive) | 76 µM (inactive) | 87.5 µM (inactive) |  | 
2 | CC(C)(C)OC(=O)N1CCCC1C(=O)NCCNc1ccc(NCCNC(=O)C2CCCN2C(=O)OC(C)(C)C)c2c1C(=O)c1ccccc1C2=O (stereo unspecified) | 15.4 µM (inactive) | > 100 µM (inactive) |  | 27 µM (inactive) | 13.7 µM (inactive) | 18.7 µM (inactive) | 13.9 µM (inactive) | 12.2 µM (inactive) | 12.4 µM (inactive) | 16.2 µM (inactive) | 15.6 µM (inactive) | 16.7 µM (inactive) | 31.3 µM (inactive) | 18 µM (inactive) | 16.1 µM (inactive) | 0.112 µM (active) | 13.8 µM (inactive) | 11.6 µM (inactive) | 20.4 µM (inactive) | 
3 | O=C1C=CC(=C(c2ccccc2)c2ccc(O)cc2)C=C1 | 19.4 µM (inactive) | 1.16 µM (inactive) | 17.4 µM (inactive) | 13.7 µM (inactive) | 20.7 µM (inactive) | 16.7 µM (inactive) | 8.41 µM (inactive) | 19.4 µM (inactive) | 4.51 µM (inactive) | 13.4 µM (inactive) | 18.7 µM (inactive) | 20.3 µM (inactive) | 20 µM (inactive) | 19.4 µM (inactive) | 13.2 µM (inactive) | 11.5 µM (inactive) | 18.1 µM (inactive) | 14.1 µM (inactive) | 16.9 µM (inactive) | 
4 | Oc1cc(CF)nc(S)n1 | > 100 µM (inactive) | > 100 µM (inactive) | > 100 µM (inactive) | > 100 µM (inactive) | > 100 µM (inactive) | > 100 µM (inactive) | > 100 µM (inactive) | > 100 µM (inactive) | > 100 µM (inactive) |  | > 100 µM (inactive) | > 100 µM (inactive) | > 100 µM (inactive) | > 100 µM (inactive) |  | > 100 µM (inactive) | > 100 µM (inactive) | > 100 µM (inactive) | > 100 µM (inactive) | > 100 µM (inactive)
5 | CSC1=C(C)C(/C=N/Nc2ccc([N+](=O)[O-])cc2)=C(C)N(c2ccccc2)S1(=O)=O | 44.9 µM (inactive) | > 100 µM (inactive) | > 100 µM (inactive) | 33.9 µM (inactive) | 28.5 µM (inactive) |  | 28.2 µM (inactive) | 26.5 µM (inactive) | 19.6 µM (inactive) | 32.4 µM (inactive) | 5.93 µM (inactive) | > 100 µM (inactive) | > 100 µM (inactive) | 6.17 µM (inactive) | > 100 µM (inactive) | 17.4 µM (inactive) | > 100 µM (inactive) | 74.1 µM (inactive) | 38.5 µM (inactive) | 3.09 µM (inactive)
6 | COc1ccc(NC(=S)N/N=C/c2c(C)n(C)n(-c3ccccc3)c2=O)cc1 | 34.7 µM (inactive) | > 100 µM (inactive) |  | 42.8 µM (inactive) | 69.5 µM (inactive) | 29.9 µM (inactive) | 47.5 µM (inactive) | > 100 µM (inactive) | > 100 µM (inactive) | 42.7 µM (inactive) | 31.5 µM (inactive) |  | 27.9 µM (inactive) | 37.9 µM (inactive) | 21.3 µM (inactive) | > 100 µM (inactive) | > 100 µM (inactive) | 51.1 µM (inactive) | 28 µM (inactive) | 
7 | O=c1nc2occc2cn1C1CC(O)C(CO)O1 (stereo unspecified) | > 100 µM (inactive) | > 100 µM (inactive) |  | > 100 µM (inactive) | > 100 µM (inactive) |  | > 100 µM (inactive) | > 100 µM (inactive) | > 100 µM (inactive) |  | > 100 µM (inactive) | > 100 µM (inactive) | > 100 µM (inactive) | > 100 µM (inactive) | > 100 µM (inactive) | > 100 µM (inactive) | > 100 µM (inactive) | > 100 µM (inactive) | > 100 µM (inactive) | 
8 | O=C(/C(=C\c1ccccc1)CN1CCOCC1)c1ccc(Br)cc1 | 1.75 µM (inactive) | 0.714 µM (active) |  | 3.06 µM (inactive) | 2.05 µM (inactive) |  | 4.97 µM (inactive) | 1.87 µM (inactive) | 1.65 µM (inactive) |  | 3.24 µM (inactive) | 3.48 µM (inactive) | 3.63 µM (inactive) | 5.97 µM (inactive) | 2.12 µM (inactive) | 1.91 µM (inactive) | 1.18 µM (inactive) | 1.55 µM (inactive) | 10.8 µM (inactive) | 
9 | COC(=O)c1cc(C(=O)OC)cc(-c2ccc3c(c2)-c2nc4c(c(-c5ccc(OC)cc5)c2CC3)CCc2ccc(-c3cc(C(=O)OC)cc(C(=O)OC)c3)cc2-4)c1 | > 100 µM (inactive) |  | > 100 µM (inactive) | 16.9 µM (inactive) |  |  |  | > 100 µM (inactive) |  | > 100 µM (inactive) | > 100 µM (inactive) | 16 µM (inactive) | > 100 µM (inactive) | > 100 µM (inactive) |  | > 100 µM (inactive) |  | > 100 µM (inactive) | > 100 µM (inactive) | > 100 µM (inactive)
10 | COc1ccc(/C=C2/C(=O)N(C(=O)c3ccccc3O)N=C2C)cc1OC | 0.162 µM (active) | 0.337 µM (active) | 0.643 µM (active) | 1.38 µM (inactive) | 16.8 µM (inactive) |  | 0.133 µM (active) | 0.516 µM (active) | 0.603 µM (active) | 0.361 µM (active) | 0.248 µM (active) | 3.9 µM (inactive) | 0.556 µM (active) | 0.365 µM (active) | 0.241 µM (active) | 0.982 µM (active) | 3.27 µM (inactive) | 0.147 µM (active) |  | 
11 | COc1cccc(N2C(=O)C3c4[nH]c5ccc(C)cc5c4C4CCC(C)CC4C3C2=O)c1 (stereo unspecified) | > 100 µM (inactive) | 31.7 µM (inactive) | > 100 µM (inactive) | 32.6 µM (inactive) | > 100 µM (inactive) | 23.7 µM (inactive) | 89.5 µM (inactive) |  | > 100 µM (inactive) | > 100 µM (inactive) | > 100 µM (inactive) | > 100 µM (inactive) | 47.2 µM (inactive) | 35 µM (inactive) | 57.5 µM (inactive) | > 100 µM (inactive) | > 100 µM (inactive) | 30.3 µM (inactive) |  | 
12 | Cc1cccc(Nc2cn(CCOc3ccccc3)c(=O)[nH]c2=O)c1 | 33.2 µM (inactive) | 52.6 µM (inactive) | 28.5 µM (inactive) | 11.3 µM (inactive) |  | 6.41 µM (inactive) | 16.7 µM (inactive) | 31.3 µM (inactive) | 11.9 µM (inactive) | 35.9 µM (inactive) | 31 µM (inactive) | 19.4 µM (inactive) | 30 µM (inactive) | 49.9 µM (inactive) |  | 25.8 µM (inactive) | > 100 µM (inactive) | 46.6 µM (inactive) |  | 
13 | CCCOC(=O)C1C(c2ccc(OC)cc2)NC(c2ccc(OC)cc2)C(C(=O)OCCC)S1(=O)=O (stereo unspecified) | > 10 µM (inactive) | > 10 µM (inactive) |  | > 10 µM (inactive) | > 10 µM (inactive) |  | > 10 µM (inactive) | > 10 µM (inactive) | > 10 µM (inactive) |  | > 10 µM (inactive) | > 10 µM (inactive) | > 10 µM (inactive) | > 10 µM (inactive) | > 10 µM (inactive) | > 10 µM (inactive) | > 10 µM (inactive) | > 10 µM (inactive) | > 10 µM (inactive) | 
14 | O=C(NC/C=C/Br)NC1CCNc2ccccc21 (stereo unspecified) | 58.3 µM (inactive) | 36.4 µM (inactive) | 52.1 µM (inactive) | 47.6 µM (inactive) | 15.7 µM (inactive) |  | 76.6 µM (inactive) | 38.2 µM (inactive) | 25.6 µM (inactive) | 19.3 µM (inactive) | 16.8 µM (inactive) | 55.3 µM (inactive) | 77.4 µM (inactive) | 45.4 µM (inactive) | 20.5 µM (inactive) | 19.5 µM (inactive) | 52.8 µM (inactive) | 31.3 µM (inactive) | 45 µM (inactive) | 36.5 µM (inactive)
15 | C=CCN(N=O)C(=O)NCCCCC(NC(C)=O)C(=O)NCc1ccccc1 (stereo unspecified) | > 100 µM (inactive) | > 100 µM (inactive) |  | > 100 µM (inactive) | > 100 µM (inactive) |  | > 100 µM (inactive) | > 100 µM (inactive) | > 100 µM (inactive) |  | > 100 µM (inactive) | > 100 µM (inactive) | > 100 µM (inactive) | > 100 µM (inactive) | > 100 µM (inactive) | > 100 µM (inactive) | > 100 µM (inactive) | > 100 µM (inactive) | > 100 µM (inactive) | 
16 | COc1ccc(C2=C(Cl)c3cc(OC)c(OC)cc3C2OC)cc1OC (stereo unspecified) | > 100 µM (inactive) | 50.2 µM (inactive) |  | > 100 µM (inactive) | > 100 µM (inactive) |  | > 100 µM (inactive) | > 100 µM (inactive) | 50.2 µM (inactive) |  | > 100 µM (inactive) | > 100 µM (inactive) | > 100 µM (inactive) | > 100 µM (inactive) | 65.2 µM (inactive) | > 100 µM (inactive) | 19.5 µM (inactive) | > 100 µM (inactive) | > 100 µM (inactive) | 

Source: ChEMBL document CHEMBL1201862, “PubChem BioAssay data set” (2004)
